# Molecular target: LSD1 (Homo sapiens, UniProt O60341)
# Test: LSD1 fluorescence coupling enzyme assay (HRP/Amplex Red), 10-dose IC50 mode
# Assay type: biochemical
# Conditions: 10-dose IC50 mode, 3-fold serial dilution in duplicate starting at 100 μM; 10 μM histone H3(1-21)K4me2 peptide substrate; read-out: RB LSD1 ave
# Protocol: Compounds were tested in a 10-dose IC50 mode fluorescence coupling enzyme assay with 3-fold serial dilution in duplicate starting at 100 μM. The production of FAD-dependent H2O2 as a result of demethylase activity of LSD1 on 10 μM histone H3(1-21)K4me2 peptide substrate was measured by coupling with HRP and Amplex Red to yield resorufin (fluorescence measured at Ex/Em=535/590 nm on EnVision, Perkin Elmer).
row,IC50,SMILES
1,28 nM,"CN1CCN(c2nc(CCCN[C@@H]3C[C@H]3c3ccc(F)cc3)c[nH]c2=O)CC1 [Example 2, 5-[3-([(1R,2S)-2-(4-fluorophenyl)cyclopropyl]amino)propyl] 3-[4-methylpiperazin-1-yl]-pyrazin-2(1H)-one]"
2,7 nM,"CS(=O)(=O)N1CCN(c2nc(CCCN[C@@H]3C[C@H]3c3ccc(F)cc3)c[nH]c2=O)CC1 [Example 3, 5-[3-([(1R,2S)-2-(4-fluorophenyl)cyclopropyl]amino)propyl]-3-[4-(methylsulfonyl)piperazin-1-yl]pyrazin-2(1H)-one]"
3,7 nM,"O=c1[nH]cc(CCCN[C@@H]2C[C@H]2c2ccc(F)cc2)nc1N1CCOCC1 [Example 4, 5-[3-([(1R,2S)-2-(4-fluorophenyl)cyclopropyl]amino)propyl]-3-morpholinopyrazin-2(1H)-one]"
4,12 nM,"O=c1[nH]cc(CCCN[C@@H]2C[C@H]2c2ccc(F)cc2)nc1N1CCC1 [Example 5, 3-[Azetidin-1-yl]-5-[3-([(1R,2S)-2-(4-fluorophenyl)cyclopropyl]amino)propyl]-pyrazin-2(1H)-one]"
5,48 nM,"O=c1c(N2CCS(=O)(=O)CC2)nc(CCCN[C@@H]2C[C@H]2c2ccc(F)cc2)cn1C1CC1 [Example 8, 1-Cyclopropyl-3-[1,1-dioxidothiomorpholino]-5-[3-([(1R,2S)-2-(4-fluorophenyl)cyclopropyl]amino)propyl]pyrazin-2(1H)-one]"
6,6 nM,"O=c1[nH]cc(CCCN[C@@H]2C[C@H]2c2ccccc2)nc1N1CCS(=O)(=O)CC1 [Example 9, 3-(1,1-Dioxidothiomorpholino)-5-(3-(((1R,2S)-2-phenylcyclopropyl)amino)propyl)pyrazin-2(1H)-one]"
7,300 nM,"O=C(O)C1CCN(c2nc(CCCN[C@@H]3C[C@H]3c3ccc(F)cc3)c[nH]c2=O)CC1 [Example 10, 1-[6-(3-[([1R,2S]-2-[4-fluorophenyl]cyclopropyl)amino]propyl)-3-oxo-3,4-dihydropyrazin-2-yl]piperidine-4-carboxylic acid]"
8,10 nM,"CN(C)S(=O)(=O)c1ccc(-n2cc(CCCN[C@@H]3C[C@H]3c3ccc(F)cc3)nc(N3CCNCC3)c2=O)cc1 [Example 14, 4-[5-(3-[([1R,2S]-2-[4-fluorophenyl]cyclopropyl)amino]propyl)-2-oxo-3-(piperazin-1-yl)pyrazin-1(2H)-yl]-N,N-dimethylbenzenesulfonamide]"
9,4 nM,"O=c1c(N2CCNCC2)nc(CCCN[C@@H]2C[C@H]2c2ccc(F)cc2)cn1-c1ccc(F)cc1 [Example 26, 1-[4-Fluorophenyl]-5-[3-([(1R,2S)-2-(4-fluorophenyl)cyclopropyl]amino)propyl]-3-(piperazin-1-yl)pyrazin-2(1H)-one]"
10,17 nM,"O=c1c(N2CCNCC2)nc(CCCN[C@@H]2C[C@H]2c2ccc(F)cc2)cn1-c1ccc(-n2ccnn2)cc1 [Example 27, 1-[4-(1H-1,2,3-triazol-1-yl)phenyl]-5-[3-([(1R,2S)-2-(4-fluorophenyl)-cyclopropyl]amino)propyl]-3-[piperazin-1-yl]pyrazin-2(1H)-one]"
11,6 nM,"O=c1c(N2CCNCC2)nc(CCCN[C@@H]2C[C@H]2c2ccc(F)cc2)cn1-c1ccc(-c2ncccn2)cc1 [Example 28, 5-[3-([(1R,2S)-2-(4-fluorophenyl)cyclopropyl]amino)propyl]-3-[piperazin-1-yl]-1-[4-(pyrimidin-2-yl)phenyl]pyrazin-2(1H)-one]"
12,2 nM,"O=c1c(N2CCNCC2)nc(CCCN[C@@H]2C[C@H]2c2ccc(F)cc2)cn1-c1ccc(-c2cccnn2)cc1 [Example 29, 5-[3-([(1R,2S)-2-(4-fluorophenyl)cyclopropyl]amino)propyl]-3-[piperazin-1-yl]-1-[4-(pyridazin-3-yl)phenyl]pyrazin-2(1H)-one]"
13,2 nM,"CN(C)S(=O)(=O)c1ccc(-n2cc(CCCN[C@@H]3C[C@H]3c3ccc(F)cc3)nc(N3CCN(S(C)(=O)=O)CC3)c2=O)cc1 [Example 30, 4-[5-(3-[[(1R,2S)-2-(4-Fluorophenyl)cyclopropyl]amino]propyl)-3-(4-methanesulfonylpiperazin-1-yl)-2(1H)-oxopyrazin-1-yl]-N,N-dimethylbenzene-1-sulfonamide]"
14,4 nM,"O=c1[nH]cc(CCCN[C@@H]2C[C@H]2c2ccc(F)cc2)nc1N1CCNCC1 [Example 31, 5-[3-([(1R,2S)-2-(4-fluorophenyl)cyclopropyl]amino)propyl]-3-[piperazin-1-yl]pyrazin-2(1H)-one]"
15,9 nM,"O=c1[nH]cc(CCCN[C@@H]2C[C@H]2c2ccc(F)cc2)nc1N1CCS(=O)(=O)CC1 [Example 32, 3-[1,1-Dioxidothiomorpholino]-5-[3-([(1R,2S)-2-(4-fluorophenyl)cyclopropyl]amino)propyl]pyrazin-2(1H)-one]"
16,13 nM,"O=c1c(-c2cn[nH]c2)nc(CCCN[C@@H]2C[C@H]2c2ccc(F)cc2)cn1-c1ccc(F)cc1 [Example 36, 1-[4-fluorophenyl]-5-[3-([(1R,2S)-2-(4-fluorophenyl)cyclopropyl]amino)propyl]-3-[1H-pyrazol-4-yl]pyrazin-2(1H)-one]"
17,24 nM,"CN1CCN(c2nc(CCCN[C@@H]3C[C@H]3c3ccc(F)cc3)c[nH]c2=O)CC1=O [Example 41, 5-[3-([(1R,2S)-2-(4-fluorophenyl)cyclopropyl]amino)propyl]-3-[4-methyl-3-oxopiperazin-1-yl]pyrazin-2(1H)-one]"
18,6 nM,"N#Cc1ccc(-n2cc(CCCN[C@@H]3C[C@H]3c3ccc(F)cc3)nc(N3CC4(COC4)C3)c2=O)cc1 [Example 44, 4-[5-(3-[([1R,2S]-2-[4-fluorophenyl]cyclopropyl)amino]propyl)-2-oxo-3-(2-oxa-6-azaspiro[3.3]heptan-6-yl)pyrazin-1(2H)-yl]benzonitrile]"
19,7 nM,"O=C1CN(c2nc(CCCN[C@@H]3C[C@H]3c3ccc(F)cc3)cn(Cc3ccccc3)c2=O)CCN1 [Example 46, 1-benzyl-5-[3-([(1R,2S)-2-(4-fluorophenyl)cyclopropyl]amino)propyl]-3-[3-oxopiperazin-1-yl]pyrazin-2(1H)-one]"
20,15 nM,"O=C1CN(c2nc(CCCN[C@@H]3C[C@H]3c3ccc(F)cc3)c[nH]c2=O)CCN1 [Example 48, 5-[3-([(1R,2S)-2-(4-fluorophenyl)cyclopropyl]amino)propyl]-3-[3-oxopiperazin-1-yl]pyrazin-2(1H)-one]"
